Assays:
[1] = tested on: control sera (pooled serum of ten healthy LUMC hospital workers; commercial negative donor pooled serum from the Dutch bloodbank); assay type: binding, human; design: Binding of Control serum LUMC to linear peptides / Binding of Control serum Blood-bank to linear peptides / Binding of Control serum LUMC to looped peptides / Binding of Control Serum Blood-Bank to Looped peptides / Binding of Control serum LUMC to linear peptides of the protein M of SARS-CoV Urbani / Binding of Control serum Blood-bank to linear peptides of the protein M of SARS-CoV Urbani / Binding of Control serum LUMC to looped peptides of the protein M of SARS-CoV Urbani / Binding of Control Serum Blood-Bank to Looped peptides of the protein M of SARS-CoV Urbani: unit not given here
[2] = tested on: rabbit serum obtained by immunizing a rabbit with the SARS-CoV strain Frankfurt 1; assay type: binding; design: Binding of a rabbit serum to linear peptides / Binding of a rabbit serum to looped peptides / Rabbit serum linear peptides / Rabbit serum looped peptides / Binding of a rabbit serum to linear peptides of protein N of SARS-CoV Urbani (Rabbit serum linear peptides) / Binding of a rabbit serum to looped/cyclic peptides of protein N of SARS-CoV Urbani (Rabbit serum looped peptides): unit not given here
[3] = tested on: antibodies in sera from SARS patients (sera 1a, 1b, 2, 6, 37, 62, London, SARS-yellow, SARS-green); assay type: binding, human; design: Binding of serum 6 to linear peptides of protein X1 of SARS-CoV Urbani / Binding of serum 37 to linear peptides of protein X1 of SARS-CoV Urbani / Binding of serum 6 to looped/cyclic peptide (PEPSCAN-ELISA) / Binding of serum 37 to looped/cyclic peptide (PEPSCAN-ELISA) / Binding of serum 37 to looped/cyclic peptides of protein X1 of SARS-CoV Urbani / Binding of serum 6 to linear peptides of protein X2 / Binding of serum 37 to linear peptides of protein X2 / Binding of serum 37 to looped/cyclic peptides of protein X2 of SARS-CoV Urbani / Binding of serum 6 to linear peptides of protein M of SARS-CoV Urbani / Binding of serum 37 to linear peptides of protein M of SARS-CoV Urbani / Binding of serum 6 to looped/cyclic peptides of protein M of SARS-CoV Urbani / Binding of serum 37 to looped/cyclic peptides of protein M of SARS-CoV Urbani / Binding of serum 6 to linear peptides of protein X3 of SARS-CoV Urbani / Binding of serum 37 to linear peptides of protein X3 of SARS-CoV Urbani / Binding of serum 37 to looped/cyclic peptides of protein X3 of SARS-CoV Urbani / Binding of serum 6 to linear peptides of protein X4 of SARS-CoV Urbani / Binding of serum 37 to linear peptides of protein X4 of SARS-CoV Urbani / Binding of serum 37 to looped/cyclic peptides of protein X4 of SARS-CoV Urbani / Binding of serum 6 to linear peptides of protein X5 of SARS-CoV Urbani / Binding of serum 37 to linear peptides of protein X5 of SARS-CoV Urbani / Binding of serum 37 to looped/cyclic peptides of protein X5 of SARS-CoV Urbani / Binding of serum 6 to linear peptides of protein N of SARS-CoV Urbani / Binding of serum 37 to linear peptides of protein N of SARS-CoV Urbani / Binding of serum 6 to linear peptide (PEPSCAN-ELISA) / Binding of serum 1a to looped/cyclic peptides of protein N of SARS-CoV Urbani / Binding of serum 1b to looped/cyclic peptides of protein N of SARS-CoV Urbani / Binding of serum 2 to looped/cyclic peptides of protein N of SARS-CoV Urbani / Binding of serum 6 to looped/cyclic peptides of protein N of SARS-CoV Urbani / Binding of serum 37 to looped/cyclic peptides of protein N of SARS-CoV Urbani / Binding of serum 62 to looped/cyclic peptides of protein N of SARS-CoV Urbani / Binding of serum London to looped/cyclic peptides of protein N of SARS-CoV Urbani / Binding of serum SARS-green to looped/cyclic peptides of protein N of SARS-CoV Urbani: unit not given here

IQQWIQFMMSRRRLL
0.5: Binding of Control Serum Blood-Bank to Looped peptides [1] | Binding of Control serum LUMC to linear peptides [1] | Binding of serum 1b to linear peptides of protein X2 [3] | Binding of serum 2 to looped/cyclic peptides of protein X2 of SARS-CoV Urbani [3] | Binding of serum 37 to looped/cyclic peptides of protein X2 of SARS-CoV Urbani [3] | Binding of serum 62 to linear peptides of protein X2 [3] | Binding of serum SARS-yellow to looped/cyclic peptides of protein X2 of SARS-CoV Urbani [3]
0.8: Binding of serum SARS-yellow to linear peptides of protein X2 [3]
1.0: Binding of a rabbit serum to looped peptides [2]
0.3: Binding of serum SARS-green to linear peptides of protein X2 [3]
0.6: Binding of Control serum LUMC to looped peptides [1] | Binding of serum 1a to linear peptides of protein X2 [3] | Binding of serum 6 to linear peptides of protein X2 [3] | Binding of serum 37 to linear peptides of protein X2 [3]
0.4: Binding of a rabbit serum to linear peptides [2] | Binding of serum 1a to looped/cyclic peptides of protein X2 of SARS-CoV Urbani [3] | Binding of serum 1b to looped/cyclic peptides of protein X2 of SARS-CoV Urbani [3] | Binding of serum 2 to linear peptides of protein X2 [3] | Binding of serum 6 to looped/cyclic peptides of protein X2 of SARS-CoV Urbani [3] | Binding of serum London to linear peptides of protein X2 [3] | Binding of serum SARS-green to looped/cyclic peptides of protein X2 of SARS-CoV Urbani [3]
0.2: Binding of serum London to looped/cyclic peptides of protein X2 of SARS-CoV Urbani [3]
0.7: Binding of Control serum Blood-bank to linear peptides [1] | Binding of serum 62 to looped/cyclic peptides of protein X2 of SARS-CoV Urbani [3]

LIVFTSCELYHYQEC
1.1: Binding of serum SARS-green to linear peptides of protein X4 of SARS-CoV Urbani [3]
0.3: Binding of serum London to looped/cyclic peptides of protein X4 of SARS-CoV Urbani [3]
0.8: Binding of Control serum LUMC to looped peptides [1] | Binding of serum 1a to linear peptides of protein X4 of SARS-CoV Urbani [3] | Binding of serum 1a to looped/cyclic peptides of protein X4 of SARS-CoV Urbani [3] | Binding of serum 1b to linear peptides of protein X4 of SARS-CoV Urbani [3] | Binding of serum London to linear peptides of protein X4 of SARS-CoV Urbani [3]
1.0: Binding of serum 37 to linear peptides of protein X4 of SARS-CoV Urbani [3] | Binding of serum 62 to linear peptides of protein X4 of SARS-CoV Urbani [3]
0.7: Binding of Control Serum Blood-Bank to Looped peptides [1] | Binding of Control serum LUMC to linear peptides [1] | Binding of serum 37 to looped/cyclic peptides of protein X4 of SARS-CoV Urbani [3] | Binding of serum 62 to looped/cyclic peptides of protein X4 of SARS-CoV Urbani [3]
0.6: Binding of Control serum Blood-bank to linear peptides [1] | Binding of serum 1b to looped/cyclic peptides of protein X4 of SARS-CoV Urbani [3] | Binding of serum 2 to linear peptides of protein X4 of SARS-CoV Urbani [3] | Binding of serum 2 to looped/cyclic peptides of protein X4 of SARS-CoV Urbani [3] | Binding of serum 6 to linear peptides of protein X4 of SARS-CoV Urbani [3] | Binding of serum SARS-yellow to linear peptides of protein X4 of SARS-CoV Urbani [3] | Binding of serum SARS-yellow to looped/cyclic peptides of protein X4 of SARS-CoV Urbani [3]
0.5: Rabbit serum linear peptides [2] | Rabbit serum looped peptides [2] | Binding of serum 6 to looped/cyclic peptides of protein X4 of SARS-CoV Urbani [3] | Binding of serum SARS-green to looped/cyclic peptides of protein X4 of SARS-CoV Urbani [3]

NTYSTAWLCALGKVL
2.3: Binding of serum London to looped/cyclic peptides of protein X5 of SARS-CoV Urbani [3]
0.5: Binding of Control serum LUMC to looped peptides [1] | Rabbit serum looped peptides [2] | Binding of serum 2 to linear peptides of protein X5 of SARS-CoV Urbani [3] | Binding of serum 2 to looped/cyclic peptides of protein X5 of SARS-CoV Urbani [3] | Binding of serum 37 to looped/cyclic peptides of protein X5 of SARS-CoV Urbani [3]
0.6: Rabbit serum linear peptides [2] | Binding of serum 6 to linear peptides of protein X5 of SARS-CoV Urbani [3] | Binding of serum 37 to linear peptides of protein X5 of SARS-CoV Urbani [3] | Binding of serum 62 to looped/cyclic peptides of protein X5 of SARS-CoV Urbani [3] | Binding of serum London to linear peptides of protein X5 of SARS-CoV Urbani [3] | Binding of serum SARS-yellow to looped/cyclic peptides of protein X5 of SARS-CoV Urbani [3]
0.8: Binding of Control serum Blood-bank to linear peptides [1]
0.4: Binding of Control Serum Blood-Bank to Looped peptides [1] | Binding of Control serum LUMC to linear peptides [1] | Binding of serum 1a to looped/cyclic peptides of protein X5 of SARS-CoV Urbani [3] | Binding of serum 1b to linear peptides of protein X5 of SARS-CoV Urbani [3] | Binding of serum SARS-green to linear peptides of protein X5 of SARS-CoV Urbani [3]
0.7: Binding of serum 1a to linear peptides of protein X5 of SARS-CoV Urbani [3] | Binding of serum 62 to linear peptides of protein X5 of SARS-CoV Urbani [3]
0.3: Binding of serum 1b to looped/cyclic peptides of protein X5 of SARS-CoV Urbani [3] | Binding of serum SARS-green to looped/cyclic peptides of protein X5 of SARS-CoV Urbani [3] | Binding of serum SARS-yellow to linear peptides of protein X5 of SARS-CoV Urbani [3]
1.1: Binding of serum 6 to looped/cyclic peptides of protein X5 of SARS-CoV Urbani [3]

VKDYVVVHGYFTEVY
0.7: Binding of serum 1a to linear peptides of protein X1 of SARS-CoV Urbani [3]
0.2: Binding of serum 6 to looped/cyclic peptides of protein X1 of SARS-CoV Urbani [3] | Binding of serum London to linear peptides of protein X1 of SARS-CoV Urbani [3] | Binding of serum London to looped/cyclic peptides of protein X1 of SARS-CoV Urbani [3] | Binding of serum SARS-green to linear peptides of protein X1 of SARS-CoV Urbani [3] | Binding of serum SARS-green to looped/cyclic peptides of protein X1 of SARS-CoV Urbani [3]
0.5: Binding of Control Serum Blood-Bank to Looped peptides [1] | Binding of Control serum Blood-bank to linear peptides [1] | Binding of Control serum LUMC to linear peptides [1] | Binding of serum 1a to looped/cyclic peptides of protein X1 of SARS-CoV Urbani [3] | Binding of serum 62 to linear peptides of protein X1 of SARS-CoV Urbani [3] | Binding of serum 62 to looped/cyclic peptides of protein X1 of SARS-CoV Urbani [3] | Binding of serum SARS-yellow to looped/cyclic peptides of protein X1 of SARS-CoV Urbani [3]
0.6: Binding of Control serum LUMC to looped peptides [1] | Binding of a rabbit serum to looped peptides [2] | Binding of serum 1b to linear peptides of protein X1 of SARS-CoV Urbani [3] | Binding of serum 37 to linear peptides of protein X1 of SARS-CoV Urbani [3] | Binding of serum 37 to looped/cyclic peptides of protein X1 of SARS-CoV Urbani [3]
0.4: Binding of serum 1b to looped/cyclic peptides of protein X1 of SARS-CoV Urbani [3] | Binding of serum 2 to linear peptides of protein X1 of SARS-CoV Urbani [3] | Binding of serum 2 to looped/cyclic peptides of protein X1 of SARS-CoV Urbani [3] | Binding of serum 6 to linear peptides of protein X1 of SARS-CoV Urbani [3] | Binding of serum SARS-yellow to linear peptides of protein X1 of SARS-CoV Urbani [3]
0.1: Binding of a rabbit serum to linear peptides [2]

ALQELLIQQWIQFMM
0.4: Binding of Control serum LUMC to linear peptides [1] | Binding of a rabbit serum to looped peptides [2] | Binding of serum 2 to linear peptides of protein X2 [3] | Binding of serum 2 to looped/cyclic peptides of protein X2 of SARS-CoV Urbani [3] | Binding of serum 6 to linear peptides of protein X2 [3] | Binding of serum SARS-green to looped/cyclic peptides of protein X2 of SARS-CoV Urbani [3] | Binding of serum SARS-yellow to linear peptides of protein X2 [3]
0.2: Binding of a rabbit serum to linear peptides [2] | Binding of serum 6 to looped/cyclic peptides of protein X2 of SARS-CoV Urbani [3] | Binding of serum London to looped/cyclic peptides of protein X2 of SARS-CoV Urbani [3]
0.5: Binding of Control serum Blood-bank to linear peptides [1] | Binding of serum 1b to looped/cyclic peptides of protein X2 of SARS-CoV Urbani [3] | Binding of serum 37 to looped/cyclic peptides of protein X2 of SARS-CoV Urbani [3] | Binding of serum London to linear peptides of protein X2 [3] | Binding of serum SARS-yellow to looped/cyclic peptides of protein X2 of SARS-CoV Urbani [3]
0.6: Binding of serum 1b to linear peptides of protein X2 [3] | Binding of serum 37 to linear peptides of protein X2 [3] | Binding of serum 62 to linear peptides of protein X2 [3]
0.7: Binding of Control Serum Blood-Bank to Looped peptides [1] | Binding of Control serum LUMC to looped peptides [1] | Binding of serum 1a to linear peptides of protein X2 [3] | Binding of serum 1a to looped/cyclic peptides of protein X2 of SARS-CoV Urbani [3] | Binding of serum 62 to looped/cyclic peptides of protein X2 of SARS-CoV Urbani [3] | Binding of serum SARS-green to linear peptides of protein X2 [3]
